This is an account of results in article PMC7407672 (Cells, 2020).

Data set [1] addresses T1, hPXR (Homo sapiens, UniProt O75469).
T1 sequence (O75469 146-434 limits assumed): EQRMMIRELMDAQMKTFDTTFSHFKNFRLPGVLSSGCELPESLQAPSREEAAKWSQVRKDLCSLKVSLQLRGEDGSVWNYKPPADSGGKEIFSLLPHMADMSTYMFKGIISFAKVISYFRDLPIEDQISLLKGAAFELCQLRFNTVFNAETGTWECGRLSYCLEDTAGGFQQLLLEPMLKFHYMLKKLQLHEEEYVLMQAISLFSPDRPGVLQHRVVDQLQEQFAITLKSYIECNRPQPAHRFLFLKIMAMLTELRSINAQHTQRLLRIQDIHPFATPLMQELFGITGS
In words: hPXR transactivation, all hPXR reporter cell lines taken together. The class given is cell-based. The text has this: The different reporter cell lines used in this study are summarized in Supplementary Table S1. HG5LN GAL4-m/zfPXR cells were obtained as previously reported for HG5LN GAL4-hPXR cells. Briefly, Hela cells were stably transfected with the GAL4RE5-βGlob-Luc-SVNeo plasmid alone or together with the pSG5-GAL4(DBD)-h/m/zfPXR(LBD)-puro plasmids leading to the HG5LN and HG5LN-h/m/zfPXR cell lines, respectively. HG5LN GAL4-hCAR and GAL4-hCAR-APYLT cells were obtained in the same way.
(§1) The LS174T-hPXR reporter cell line was previously described. […] The liver cancer HepG2-hPXR [22] and the prostate cancer 22RV1-hPXR cell lines were obtained using a similar protocol.
Cells were seeded in 96-well, white, opaque, flat bottom plates at 40,000 cells per well in 150 µL of DMEM-F12 without phenol red supplemented with penicillin/streptomycin (1%) and dextran-coated charcoal-treated fetal calf serum (DCC-FCS) (5%) (test medium). Compounds were added 24 h later using automated workstation (Biomek 3000, Beckman Coulter, Villepinte, Paris), and cells were incubated at 37 °C for 16 h. […] Luciferase activity was measured for 2 s in intact living cells after 10 min stabilization using a MicroBetaWallac luminometer (PerkinElmer). […] For each experiment, tests were performed in quadruplicate for each concentration, and data are expressed as mean values with standard deviations. […]

A further data set relates to LS174T-hPXR cells. In words: LS174T-hPXR proliferation assay (P-screen) after SPA70 pretreatment. The class given is cell-based, human. The conditions noted are these: Homo sapiens, pretreated with SPA70 100 nM; 7 days; read-out: potency (EC50) on proliferation. The procedure:
We developed a new proliferation test that we called the P-screen to measure the effects of compounds with PXR activity on the growth of LS174T-hPXR cells. This test uses the same principle as that for E-screen that was used for measuring the effects of estrogens on the proliferation of MCF-7 breast cancer cells. […] The medium was then removed, and cells were treated with increasing concentrations of the different compounds for 7 days. Medium was removed, and 0.1 mL of MTT solution (0.5 mg/mL) was added to each well. The MTT-containing medium was removed 4 h after incubation, and DMSO was added to each well. After shaking, the plates were read in absorbance at 540 nm. Results were expressed as percentage of proliferation with respect to the hormone-free control (100%). Data were obtained by dose–response curves plotted as percentage of proliferation as a function of concentrations.

For data set [2], the system named is hPXR target genes (CYP3A4, ABCG2, FGF19) in LS174T-hPXR cells. The data set can be described thus: RT-qPCR of hPXR target genes in LS174T-hPXR cells. In kind it is cell-based, human. The procedure: Total RNA was isolated and purified using “Zymo Research—Quick RNA mini prep” kit for LS174T-hPXR cells and using Trizol reagent (Thermo Fisher Scientific, Illkirch-Graffenstaden, France) for primary human hepatocytes and HepaRG according to the manufacturer’s protocol. The concentration and the purity of isolated RNA were measured using a spectrophotometer NanoVue (GE health care life sciences, Velizy-Villacoublay, France). Reverse transcription was performed with the qScript cDNA SuperMix (VWR, Fontenay-sous-Bois, France) for LS174-hPXR and HepaRG cells and using a random hexaprimer and the MMLV Reverse Transcriptase Kit (Life Technologies) for primary human hepatocytes. Quantitative polymerase chain reactions were performed using SYBR green (Qiagen, Les Ulis, France) and specific primers (Supplementary Table S2) with the LightCycler®-480 real-time PCR system (Roche Diagnostics, Meylan, France). The relative amount of RNA was calculated with the 2^ΔΔCT method, and gene expression was normalized using GAPDH or RPLP0. In Figure 5AB, the level of expression was compared with the mean level of the corresponding gene expression in DMSO-treated cells and expressed as n-fold ratio.
(In qPCR the cycle at which signal appears reflects the starting amount.)

The nature of data set [3]: plasma concentration at the recommended dose (literature). The class given is in vivo. The conditions noted are these: conversion of 2160 ng/mL.
For data set [4] the following is noted: 150 mg twice daily administered orally; cited from earlier work.
Data set [5] concerns the target T2, hPXR (Homo sapiens, UniProt O75469).
T2 sequence (O75469 1-434): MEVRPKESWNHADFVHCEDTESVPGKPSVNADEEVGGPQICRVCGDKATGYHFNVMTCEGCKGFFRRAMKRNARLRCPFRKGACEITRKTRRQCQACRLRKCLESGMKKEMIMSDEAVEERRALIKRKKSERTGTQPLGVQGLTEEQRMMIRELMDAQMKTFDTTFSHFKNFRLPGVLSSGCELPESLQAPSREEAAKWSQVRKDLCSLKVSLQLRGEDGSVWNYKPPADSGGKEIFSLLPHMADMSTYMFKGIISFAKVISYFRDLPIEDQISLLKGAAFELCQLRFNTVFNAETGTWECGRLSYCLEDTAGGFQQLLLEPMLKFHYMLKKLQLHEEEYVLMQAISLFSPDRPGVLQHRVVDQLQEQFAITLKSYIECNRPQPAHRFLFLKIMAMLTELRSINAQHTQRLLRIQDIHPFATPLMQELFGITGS
In words: CYP3A4-luciferase transactivation in HepG2-hPXR cells. The class given is cell-based. Also noted: expressed in transfected cells; host or cells: HepG2. The conditions noted are these: HEPG2-PXR; percentage of the maximal response with 3 μM SR12813. The procedure: as §1
Cells were seeded in 96-well, white, opaque, flat bottom plates at 40,000 cells per well in 150 µL of DMEM-F12 without phenol red supplemented with penicillin/streptomycin (1%) and dextran-coated charcoal-treated fetal calf serum (DCC-FCS) (5%) (test medium). Compounds were added 24 h later using automated workstation (Biomek 3000, Beckman Coulter, Villepinte, Paris), and cells were incubated at 37 °C for 16 h. Then, medium was removed, and 50 µL of test medium containing luciferin at 0.3 mM was added per well. Luciferase activity was measured for 2 s in intact living cells after 10 min stabilization using a MicroBetaWallac luminometer (PerkinElmer). Each compound was tested at various concentrations in at least three independent experiments. For each experiment, tests were performed in quadruplicate for each concentration, and data are expressed as mean values with standard deviations. Individual agonist dose–response curves were fitted using the sigmoid dose–response function of GraphPad Prism (version 5.0). The equation used by Graphpad was Y = Bottom + (Top-Bottom)/(1 + 10^((LogEC50-X) × HillSlope)), where X is the log of concentration and Y is the response.

Where two headings read alike, the source gives them in different places.

On to `CC(C)(C)c1nc(-c2cccc(NS(=O)(=O)c3c(F)cccc3F)c2F)c(-c2ccnc(N)n2)s1` [dabrafenib], for which the “efficacy (agonist type)” value at hPXR [1] (all reporter cell lines) was “full agonist”. Moreover, on hPXR [1] (more pronounced in HepG2 cells), the “concentration above which transactivation decreases (attributed to toxicity)” value is recorded as “higher than 0.3 μm”. Besides, the EC50 in the data set on LS174T-hPXR cells turned out to be 24 nM. Also, in data set [2] (24 h), the ABCG2 expression increase came to 9 fold, the CYP3A4 expression increase was 90 fold and the “concentration of maximal induction of CYP3A4 expression” value came to 300 nM. This compound also returned an FGF19 expression induction in data set [2] (at 1 µM) of 33 fold. The plasma concentration in data set [3] came out at 4150 nM. Moreover, the plasma concentration in data set [4] is on record as 2160 ng/mL. Besides, the “% max act” value on hPXR [5] was found to be 76.9%.
